Data: US5330992A, “1-cyclopropyl-4-pyridyl-quinolinones” (priority 1992, dated 1994)

Assays:
[1] = In vivo antitumor assay, B16(ip); parameters: species or system mouse; conditions: mouse, in vivo, drug route ip, qd 1,5,9
From the text: (§1) Mice: Inbred: C3H/He and NCR-nu; and Hybrids: B6D2Fl (C57BL/6 females X DBA/2 males, CD2Fl (Balb/c females X DBS/2 males) and B6x C3fl (C57BL/6 x C3H) were bred at Wayne State University from strained obtained from the Frederick Cancer Research Facility, Frederick, Md. or purchased from commercial suppliers.
(§2) Tumors: Murine Tumor: P388 and an adriamycin-resistant (ADR) subline P388/ADR leukemia and the following transplantable solid tumors of mice were used for in Vivo testing: B16 melanoma (B16), pancreatic ductal adenocarcinoma No. 03 (Panc 03), colon adenocarcinoma No. 38 (colo 38), mammary ductal adenocarcinoma No. 16/C (Mam16) and an adriamycin-resistantsubline Mam16C/ADR. Human tumor: A single human tumor, mammary carcinoma MX-1 (MX1) was used for in vivo testing. All tumors are in the Developmental Therapeutics Program frozen tumor respository, maintained by the Biological Testing Branch, Frederick Md. Each has a detailed description, code identification number, and list of references at the National Tumor Repository. Murine tumors were maintained in the mouse strain of origin and were transplanted in the appropriate F1 hydrid (or the strain of origin) for therapy trials. Human mammary carcinoma MX-1 MX1) was maintained as a subcutaneous implant in either athymic Swiss (Cr: NIH(S)-nu) or athymic random bred (NCR-nu) mice and transplanted in NCR-nu for therapy trials.
(§3) For P388 and P388/ADR leukemia studies the tumor cells were implanted either IP or intravenously (IV) on day zero and treatment was started on day one. For B16 melanoma (B16) studies, the tumor cells were implanted IP on day zero and treatment was started on day one. Tirered controls were also included to facilitate the calculation of tumor cell kill. For mammary carcinoma MX-1 studies, tumors were implanted with 1) subcutaneously (sc) (14-mg fragment of s.c. donor tumor) in the axillary region or 2) under the subrenal capsule (src) (10×10×10 ocular micrometer unit fragment of s.c. donor tumor). Treatment started on the day after subrenal capsule tumor implant or when the subcutaneous tumor implant had reached 100-700 mg.
(§4) Quantitative end points used assess antitumor activity included % Increased Life Span (% ILS), Tumor Cell Kill (Log10 kill), and Tumor Growth Inhibition (T/C). Long Term Survivors (45 or 60 day) were excluded from calculations of % ILS and Tumor Cell Kill.
(§5) Endpoints were calculated as follows: % ILS [formula] where Dt is the median day of death for treated and Dc is the median day of death for control groups. A % ILS ≥20 or ≥25 for P388 and B16 intraperitoneal models, respectively, is indicative of a significant degree of antitumor activity. A % ILS ≥75 or ≥50 for P388 and B16 intraperitoneal models, respectively, is indicative of a high degree of antitumor activity and is the level used by National Cancer Institute to justify further development if other requirements are met (termed DN-2 level activity). Minimum quantitative activity limits for additional P388 models (e.g. P388/ADR and P388, IJV) have not been defined. However, the activity limits specified for the intraperitoneal models may be applied as in the majority of instances these models are found to be signficantly […] challenging.
(§6) The log10 cell kill was calculated from the following formula: [formula] where T-C is the tumor difference in the median day of death between the treated (T) and the control (C) groups and Td is the tumor doubling time (in days), the latter estimated from the best fit straight line from a log-linear growth plot of the control-group tumors in exponential growth. The conversion of the T-C values to log10 cell kill is possible because the Td for tumors regrowing post-treatment approximated the Td values of the tumors in untreated control mice.

[2] = test system: B16 melanoma (B16); assay: In vivo antitumor assay, B16(ip); parameters: species or system mouse; conditions: drug route ip; for ILS %: qd 1,5,9, increased life span; for LOG KILL: qd 1,5,9, log10 cell kill
From the text: as §1, §2, §3, §4, §5, §6

[3] = target: T1, human topoisomerase II (Homo sapiens, UniProt P11388); assay: Mammalian Topoisomerase II Inhibition Assay (DNA-topo II complex formation); format: biochemical; conditions: EC50 = concentration with activity equal to EC50 of reference mAMSA; read-out: TopoII Inh. EC50
T1 construct: Topo II was purified from late log phase suspension cultures of HeLa WIS; endogenous in cells; host or cells: HeLa WIS suspension cultures, late log phase (enzyme purified from the cells)
T1 sequence (P11388 whole entry): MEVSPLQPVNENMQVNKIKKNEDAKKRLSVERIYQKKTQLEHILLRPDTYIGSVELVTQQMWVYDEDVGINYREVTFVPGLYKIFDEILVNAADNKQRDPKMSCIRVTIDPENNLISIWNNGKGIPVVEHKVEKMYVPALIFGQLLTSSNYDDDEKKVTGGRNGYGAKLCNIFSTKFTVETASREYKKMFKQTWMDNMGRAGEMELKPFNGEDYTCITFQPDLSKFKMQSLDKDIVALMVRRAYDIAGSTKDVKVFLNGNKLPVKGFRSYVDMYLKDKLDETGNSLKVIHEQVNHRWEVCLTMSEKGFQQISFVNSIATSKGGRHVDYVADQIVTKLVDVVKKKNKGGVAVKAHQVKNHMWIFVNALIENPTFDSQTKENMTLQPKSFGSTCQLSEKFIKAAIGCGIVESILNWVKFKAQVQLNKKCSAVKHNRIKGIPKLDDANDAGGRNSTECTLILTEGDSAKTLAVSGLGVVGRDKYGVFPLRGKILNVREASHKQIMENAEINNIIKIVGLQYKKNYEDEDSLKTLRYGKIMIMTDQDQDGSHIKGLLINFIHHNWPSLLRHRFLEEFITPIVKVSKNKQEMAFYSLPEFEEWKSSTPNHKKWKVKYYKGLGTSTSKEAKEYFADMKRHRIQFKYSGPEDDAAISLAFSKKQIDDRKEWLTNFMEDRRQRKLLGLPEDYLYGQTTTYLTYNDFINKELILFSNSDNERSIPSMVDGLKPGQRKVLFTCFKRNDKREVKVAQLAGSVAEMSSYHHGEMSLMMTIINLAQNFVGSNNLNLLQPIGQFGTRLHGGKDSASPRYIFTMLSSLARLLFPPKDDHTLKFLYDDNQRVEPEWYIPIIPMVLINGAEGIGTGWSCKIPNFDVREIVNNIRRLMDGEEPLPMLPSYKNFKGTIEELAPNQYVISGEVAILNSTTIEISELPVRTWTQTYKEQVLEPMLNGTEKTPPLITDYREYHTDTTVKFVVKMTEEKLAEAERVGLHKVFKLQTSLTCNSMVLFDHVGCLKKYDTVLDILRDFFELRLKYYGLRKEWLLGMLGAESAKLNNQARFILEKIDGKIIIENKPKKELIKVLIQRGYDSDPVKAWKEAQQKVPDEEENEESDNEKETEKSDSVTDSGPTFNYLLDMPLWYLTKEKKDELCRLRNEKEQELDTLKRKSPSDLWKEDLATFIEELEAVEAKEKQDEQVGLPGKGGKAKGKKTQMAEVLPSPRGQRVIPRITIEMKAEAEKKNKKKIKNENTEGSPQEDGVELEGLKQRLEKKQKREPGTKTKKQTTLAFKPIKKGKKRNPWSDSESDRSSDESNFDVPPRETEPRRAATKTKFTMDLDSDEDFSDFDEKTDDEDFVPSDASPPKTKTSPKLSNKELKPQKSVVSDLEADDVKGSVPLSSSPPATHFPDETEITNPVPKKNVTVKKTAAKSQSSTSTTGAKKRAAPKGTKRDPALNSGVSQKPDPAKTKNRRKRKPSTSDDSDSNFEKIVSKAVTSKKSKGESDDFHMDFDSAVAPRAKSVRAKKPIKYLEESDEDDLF
Description: Mammalian Topoisomerase II Inhibition Assay Procedure
The assay quantitates the amount of topo II covalently complexed by DNA at equilibrium during a topo II reaction. This assay determines the potential of a compound to stabilize this complex, which potential is closely related to the cytotoxicity of the compound.
Assays (in duplicate) were assembled at 4° C.
4 ng 3' end labeled (^32 P) pBR322 DNA (10^7 DMP/μg)
The assay mix including the test compound was incubated for 20 minutes at 37° C. The reaction was terminated at 37° C. by the addition of 3 μl 10% SDS followed by the addition of 266 μl 10 mM Tris-Cl pH 7.5, 20 μg/ml BSA, 20 μg/ml calf thymus DNA, 1% SDS.
A SDS/protein precipitate was formed by the addition of 28 μl 2.5M KCl followed by chilling on ice for a minimum of 10 minutes. The precipitate was collected and washed with a Brandell cell harvester on a GFB glass fiber filter membrane as follows. The contents of the assay tube were drawn up into the harvester. The tube was then rinsed 7X with 10 mM Tris-Cl pH 7.5, 1 mM EDTA and 100 mM KCl. […] After drying, CPM was determined by liquid scintillation counting with 5 ml Biofluor (NEN Research Products) or Readisafe (Beckman Instruments Inc.) cocktail.
This solution then was diluted 1/5 into water and serially thereafter in either 0.02N sodium hydroxide or 0.04N hydrogen chloride, respectively. The stock solution and serial dilution of the test compound was stored at -20° C. prior to testing.
Screening of test compound--As an initial screen, the test compound was tested at a final concentration of 2, 20 and 200 μg/ml. The compound was then retested at a range of concentrations (usually 2-3X steps) bridging their approximate EC50 's, as estimated by the prescreen.
Controls--A solvent control which indicates the base level of topo II-DNA complex formed in the absence of the test compound was included in each test. A control, in which topo II was omitted, was included for each test compound at the highest drug concentration tested.
Reference Agent--A dose response curve with mAMSA at 0.01, 0.08, 0.16, 0.32, 1.0 and 10 μg/ml was included in each test.
The maximal DNA-topo II complex formed is taken as that equal to that formed at the nearly saturating dose of mAMSA (10 μg/ml).

Row | Structure (SMILES) | MTD [1] | ILS % [2] | LOG KILL [2] | EC50 [3]
1 | Cc1cc(-c2c(F)cc3c(=O)c(Cc4c(O)cccc4O)cn(C4CC4)c3c2F)cc(C)n1 [Example 26, 1-Cyclopropyl-6,8-difluoro-7-[2,6-dimethyl-4-pyridinyl]-3-[2,6-dihydroxyphenylmethyl]-1,4-dihydroquinoline-4-one] | 8.1 mg/kg | 94% | 2.2 | 96 nM
2 | Cc1cc(-c2c(F)cc3c(=O)c(Cc4ccccc4O)cn(C4CC4)c3c2F)cc(C)n1 [Example 30] | 304 mg/kg | 88% | 2.0 | 330 nM
3 | Cc1cc(-c2c(F)cc3c(=O)c(Cc4ccc(O)cc4O)cn(C4CC4)c3c2F)cc(C)n1 [Example 33] | 19 mg/kg | 94% | 2.2 | 
